Data taken from a melting point compilation (Tetko et al.; mined from patent text by program, amines drawn as free bases though some values may be those of a salt).

| SMILES | melting point [°C] |
| --- | --- |
| COc1ccc2c3c1OC1C(=O)CCC4(OC)C(C2)N(C)CCC314 (configuration not stated) | 140 to 142 |
| CCCOc1ccc(-c2ccc3c(c2)C=C(C(=O)Nc2ccc(CN(C)C4CCOCC4)cc2)CCN3C=O)cc1 | 207 to 209 |
| O=C1c2ccccc2C(=O)c2cc(OCC3CO3)ccc21 (configuration not stated) | 162 to 167 |
| CC(C)N(C[C@H](O)CO)S(C)(=O)=O | 67 to 70 |
| COc1cc2c(cc1C)C(CCCN1CCN(C)CC1)(c1ccccc1F)C(=O)N2S(=O)(=O)c1ccc(OC(C)C)cc1 (configuration not stated) | 70 |
| O=C(O)CCC1(c2cccs2)SCCS1 | 55 to 64 |
| Nc1c([N+](=O)[O-])nc(Cl)c2nncn12 | 220 |
| CC(NC(=S)NCc1ccc(C(C)(C)C)cc1)c1ccc(NS(C)(=O)=O)cc1 (configuration not stated) | 101 |
| CC(C)c1c(C(=O)c2cccc(C=CC#N)c2)[nH]c(=O)[nH]c1=O | 210 to 211 |
| NC(=O)c1c(I)c(C(=O)NC(CO)CO)c(I)c(C(=O)NC(CO)CO)c1I | 246 to 252 |
| O=C1NCCOC1C(O)c1ccccc1 (configuration not stated) | 130 to 140 |
| CC(=O)Nc1ccc2c(c1)CN(C)CC2 | 157 to 159 |
| Nc1sc(-c2ccccn2)c(CN(C2CCCCC2)C2CCCCC2)c1C(=O)c1ccc(Cl)cc1 | 192 to 194 |
| COC(=O)c1ccccc1-c1ccc(C(=C2CC(C)(C)CC(C)(C)C2)c2ccc(O)cc2)cc1 | 177 to 178 |
| COC(=O)CC1OC(=O)c2ccccc21 (configuration not stated) | 62 to 63 |
| CCCc1nc(Sc2ccc(O)cc2)c(C=O)n1Cc1cc2c(cc1Cl)OCO2 | 242 |
| Cc1ccccc1N1CCN(CCCCCC(=O)O)CC1 | 125 |
| CN(CCN1CCNC1=O)Cc1cn(-c2ccc(F)cc2)c2ccc(Cl)cc12 | 141 to 143 |
| CCCCc1nn(-c2cc(NC(=O)CC)ccc2Cl)c(=O)n1Cc1ccc(-c2ccccc2S(=O)(=O)NC(=O)c2ccccc2Oc2ccccc2)cc1 | 113 to 116 |
| COC1C=C(C)C(=O)CC(C)(C)C1OC(=O)c1ccccc1 (configuration not stated) | 91.5 to 93.5 |

| SMILES | melting point [°C] |
| --- | --- |
| CC=CCNc1cc(C(=O)O)cc(S(N)(=O)=O)c1Oc1ccc(NC(C)=O)cc1 | 255 to 257 |
| O=C(O)C(Cc1ccccc1)Cc1ccc([N+](=O)[O-])cc1 (configuration not stated) | 104 to 105 |
| O=C(O)Cc1nc(-c2ccc(Cl)cc2)sc1Sc1ccccc1 | 191 to 193 |
| CC(=O)OC1CSC(Oc2ccc(-c3ccncc3)cc2)C(OC(C)=O)C1OC(C)=O (configuration not stated) | 180 |
| COc1ccccc1CN[C@H]1CCCN(CCO)[C@H]1c1ccccc1 (relative stereo) | 148 to 149 |
| CC1(C)c2ccccc2[C@H]2Nc3ccccc3[C@H]21 (relative stereo) | 57 to 59 |
| CC(C)C1=Nc2ccccc2N(C)C(=O)C1N (configuration not stated) | 167 to 168 |
| O=C(c1ccc(I)cc1)N1CCCCC1 | 126 to 127 |
| COC(=O)NN=C1C(=O)Nc2ccc(C3=NNC(=O)SC3C)cc21 (configuration not stated) | 201 |
| CCN1C[C@@H](SCc2ccc(OC)cc2)C[C@H]1C(=O)NC | 68 to 70 |
| CC(C)OCC(=O)C1CCC2C3CCC4CC(O)CCC4(C)C3C(=O)CC12C (configuration not stated) | 121 to 125 |
| O=C(O)CCCCCNC(=NC(=O)OCc1ccccc1)NC(=O)OCc1ccccc1 | 93 |
| O=C1CCC(N2Cc3c(OCc4ccc(CN5CCC(c6cccnc6)CC5)cc4)cccc3C2=O)C(=O)N1 (configuration not stated) | 161 to 163 |
| CSc1ccc(-c2cc(C#N)c(=O)[nH]c2C)cc1 | 275 to 276 |
| CCC1(C)OC1(C#N)C(=O)O (configuration not stated) | 139 to 140 |
| CC(C)c1ccc2c(c1)c(SC1CCCCC1)c(CC(C)(C)C(=O)O)n2Cc1ccc(Cl)cc1 | 166 to 168 |
| Cc1oncc1C(=O)N1CCSCC1 | 64.5 to 65 |
| Cn1ccc(C(=O)c2ccc(O)c(Cl)c2Cl)n1 | 220 to 222 |
| COc1ccc(C2C=C3CCN(C)CC3C(CO)C2CO)cc1 (configuration not stated) | 169 to 171 |
| O=C1C2CCCN2c2ccccc2N1Cc1ccccc1 (configuration not stated) | 156 to 157 |

| SMILES | melting point [°C] |
| --- | --- |
| C=CCc1cc2c(c(CC=C)c1OC1CCCCO1)CCC(=O)N2 (configuration not stated) | 119 to 120 |
| O=C(CC(=O)c1cc(CN2CCOCC2)sc1Cl)NCc1ccc(Cl)cc1 | 109 to 112 |
| CC(C)(C)OC(=O)N1CCC(c2ccc3[nH]c(=O)[nH]c3c2)CC1 | > 250 |
| Cc1ccc(OCC(=O)O)c(C(=O)NCc2cccc([N+](=O)[O-])c2)c1 | 193 to 194 |
| CCCCCCc1ccc(C(=O)Nc2ccc3cc(CN4CCCC4)cnc3c2C)cc1 | 116 |
| COC12CC(CCN3CCC(c4c[nH]c5ccccc45)CC3)CN(C)C1Cc1c[nH]c3cccc2c13 (configuration not stated) | 153 to 156 |
| O=C(Cc1ccc(Cl)c(Cl)c1)NC1N=C(C2CC2)c2ccccc2N(CC(F)(F)F)C1=O (single isomer, unassigned; (+)) | 193 to 194 |
| CCCc1c(OCCCCCc2ccc3cc(OC)c(OC)cc3c2)ccc(C(=O)O)c1O | 135 to 137 |
| CCN1CCC2(CC1)OC(c1ccccc1)c1ccccc12 (configuration not stated) | 113 to 115 |
| C=C(C)C(=O)O[C@H]1C[C@@H](C(=O)OC)[C@]2(C)CC[C@H]3C(=O)O[C@H](c4ccoc4)C[C@]3(C)[C@H]2C1=O | 196 to 199 |
| CC(C)(Oc1ccc(NC(=O)Cc2ccccc2)cc1)C(=O)O | 173 to 175 |
| CCCNC1=NC(c2cccc(-c3cncnc3)c2)(c2ccc(OCCC)c(C)c2)C(=O)N1C (configuration not stated) | 64 to 66 |
| CC1=C(C(=O)OCOC(=O)C(C)(C)C)C(c2cccc([N+](=O)[O-])c2)C(C(=O)OCOC(=O)C(C)(C)C)=C(C)N1 | 124 to 125 |
| CCCCCCCCCCCCCCCCCCOc1cc(C(=O)OC)c([N+](=O)[O-])c(C(=O)OC)c1 | 65 to 68 |
| COc1ccc(-c2nnc3c4ccccc4c(OCCCCO)nn23)cc1 | 180 to 182 |
| CC1(C)C(C=C(Cl)Cl)C1(C#N)C(=O)O (configuration not stated) | 128 to 132 |
| CS(=O)(=O)OCc1cc(-c2ccc3c(c2)CCO3)nn(CC2CC2)c1=O | 108 to 111 |
| Cc1cc([N+](=O)[O-])c(O)c(Cl)c1C | 62 to 63 |

The next lines start with the values.

| melting point [°C] | SMILES |
| --- | --- |
| 187 to 188 | O=C(CCl)Nc1ccc2c(c1NC(=O)c1cc(C(F)(F)F)ccc1C(F)(F)F)C(=O)c1ccccc1C2=O |
| 206 to 208 | COc1ccc([N+](=O)[O-])c(Nc2ccc3[nH]ncc3c2)n1 |
| 158 | CCCCNc1ccc(C(=O)O)cc1N |
| 121 to 122 | COc1ccc(Nc2nccc(-c3cccnc3)n2)cc1 |
| 166 to 168 | O=C(Nc1nc(O)cc(-c2ccccc2)n1)C(F)(F)F |
| 139 to 141 | COc1cc(N(C)C)c(Cl)cc1C(=O)NC1CCN(Cc2ccc(F)cc2)C1 (configuration not stated) |
| 133 to 134 | Cn1cc(C(=O)Nc2ccccc2-c2ccc(F)c(Cl)c2)c(CF)n1 |
| 160 to 162 | COc1ccc2cc(-c3cncn3C)cc(C)c2n1 |
| 146 to 148 | CCOc1cc(NC(=O)NS(=O)(=O)c2ccc(C)cc2)ccn1 |
| 59 to 60 | CCOC(=O)c1cn2c(nc1=O)CCC2 |
| 258 to 259 | Nc1nc2ccccc2c2c1nc1n2CCOC1 |
| 159 to 160 | COc1cc(OC)cc(-c2ncn(C)c2-c2cc(F)c(F)c(F)c2)c1 |
| > 260 | Cc1nc2c(N)nc3cccnc3c2n1CC1(O)CCNCC1 |
| 148 to 150 | Nc1ccc2c(c1)C(=O)C1(CC1)S2 |
| 138 to 139 | COc1ccc(S(=O)(=O)c2c(C(C)C)nn3ccccc23)cc1 |
| 55 to 60 | COC(=O)c1ccc(C(F)(F)F)cc1Sc1ccccc1 |
| 74 to 75 | CCCN(C(C)C)S(=O)(=O)NC(=O)c1cc(-n2c(=O)cc(C(F)(F)F)n(C)c2=S)c(F)cc1Cl |
| 56 to 61 | CCOC(=O)c1c(C(F)(F)F)nc(C(F)(F)F)c(C(=O)OCC)c1Br |
| 140 to 144 | N#Cc1ccccc1C=CCN1CCc2nc(N)sc2CC1 |
| 92 | COC(=O)c1c(C)c(O)cc(OC)c1Cl |
| 303 | Cn1cc(-c2cc3cccnc3[nH]2)c2cc(-c3nn[nH]n3)ccc21 |
| 115 to 117 | CC(C)(C)c1cc(CN=[N+]=[N-])nn1-c1ccc(S(C)(=O)=O)cc1 |

| melting point [°C] | SMILES |
| --- | --- |
| 183 | Cn1ccc2c1CCn1ncnc1C2=C1CCNCC1 |
| 103 to 104 | COCCOCCCOc1ccc(/C=C/C(=O)O)c(Oc2ncc(C(F)(F)F)cc2Cl)c1 |
| 117 to 119 | CCOC(=O)Cc1ncn(C(c2ccccc2)(c2ccccc2)c2ccccc2)n1 |
| 141 to 142 | CSc1nccc(-c2cn(Cc3ccccc3C#N)c(=O)n2-c2ccc(F)cc2)n1 |
| 150 to 155 | COC(=O)c1nccc2c1[nH]c1ccc(Oc3ccc([N+](=O)[O-])cn3)cc12 |
| 89 to 91 | O=C1CCCc2c(F)cc(F)cc21 |
| 195 to 197 | Cc1[nH]n(-c2c(Cl)cc(C(F)(F)F)cc2Cl)c(=O)c1C=O |
| 134 to 138 | OCc1cn(-c2cc(F)cc(Br)c2)cn1 |
| 94 to 96 | CCCn1c(SC)nc2sccc2c1=O |
| 136 to 137 | O=C(O)CCc1oc(Oc2ccccc2)nc1-c1ccc(Cl)cc1 |
| 94 to 95 | COc1noc2c(C)cc(C#CCCN3CCOC3=O)cc12 |
| 149 to 151 | CCCCNc1nc(C)nc2c1nnn2-c1ccc(C(C)C)cc1Br |
| 175 to 177 | CC(Oc1ncn(-c2ccc(C(F)(F)F)cc2)n1)C(=O)NC1CC1 (configuration not stated) |
| 47 to 49 | Nc1nc(OC(F)(F)F)cc(C(F)(F)F)n1 |
| 160 | ON=Cc1sc(Cl)nc1Cl |
| 47 to 48 | CCOC(=O)c1c([N+](=O)[O-])c(C)nn1C |
| 99 | OC(COc1ccc(Cl)cc1)(Cn1cncn1)Cn1cncn1 |
| 130 to 131 | CC(C)=CCOC1(C(F)(F)F)CN(C2CC2)C(=O)Nc2ccc(Cl)cc21 (configuration not stated) |
| 119 to 120 | C[C@@H](SCCCO)[C@](O)(Cn1cncn1)c1ccc(F)cc1F (relative stereo) |
| 147 | Nc1cc(C(=O)NC2CCC2)n[nH]1 |
| 205 to 206 | N[C@H](C1CCCCC1)C(O)(c1ccc2ccccc2c1)c1ccc2ccccc2c1 |
| 250 to 252 | COc1cccc(-n2c(-c3sc(Nc4ccccc4)nc3-c3ccccc3)nc3ccccc3c2=O)c1 |
